In data set [1] the target is T1, Adenosine receptor A1 (Rattus norvegicus, UniProt P25099).
T1 sequence (P25099 whole entry): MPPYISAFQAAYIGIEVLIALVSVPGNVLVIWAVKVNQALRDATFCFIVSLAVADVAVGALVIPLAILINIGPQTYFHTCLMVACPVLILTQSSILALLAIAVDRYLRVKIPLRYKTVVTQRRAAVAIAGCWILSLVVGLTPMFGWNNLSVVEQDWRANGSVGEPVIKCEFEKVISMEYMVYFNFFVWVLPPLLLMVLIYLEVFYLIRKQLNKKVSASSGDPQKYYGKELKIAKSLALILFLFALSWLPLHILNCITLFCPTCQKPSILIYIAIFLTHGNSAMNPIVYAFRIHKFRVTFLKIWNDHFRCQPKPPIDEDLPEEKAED
Put plainly: Binding affinity against rat brain adenosine A1 receptor by using N6-[3H]- cyclohexyladenosine as radioligand.

Data set [2] in a line: Solubility in 0.1 N HCl. It counts as physicochemical.
The nature of data set [3]: Equilibrium constant (pKa) was determined. It counts as physicochemical.
For data set [4], the target named is T2, Adenosine receptor A1 (Bos taurus, UniProt P28190).
T2 sequence (P28190 whole entry): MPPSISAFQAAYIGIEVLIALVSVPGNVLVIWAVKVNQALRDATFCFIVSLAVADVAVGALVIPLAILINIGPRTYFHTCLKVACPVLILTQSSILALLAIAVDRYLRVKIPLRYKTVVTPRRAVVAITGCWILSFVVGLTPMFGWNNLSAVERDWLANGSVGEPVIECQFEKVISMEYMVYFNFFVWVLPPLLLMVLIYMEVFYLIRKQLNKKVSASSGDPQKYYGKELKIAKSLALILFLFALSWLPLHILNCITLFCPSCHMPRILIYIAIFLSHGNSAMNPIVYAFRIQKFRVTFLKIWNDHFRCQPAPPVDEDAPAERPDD
Description: Binding affinity against bovine brain adenosine A1 receptor by using N6-[3H]- cyclohexyladenosine

The nature of data set [5]: Solubility in 0.1 M phosphate buffer at pH 7.4. Format: physicochemical.
A short description of data set [6]: Partition coefficient (logP). Format: physicochemical. The conditions noted are these: octanol/water.
Setting [7] is: phosphate buffer, read-out: Solubility.

SMILES strings stand for the structures. Values after ≈ are worked out from the molar mass of the structure shown. Where only a bound is given, the exact number is not on record here.

Results on 15 compounds are retold here after ChEMBL document CHEMBL1122916, “Synthesis of xanthines as adenosine antagonists, a practical quantitative structure-activity relationship application” (J Med Chem, 1985).

Turning to `CCCn1c(=O)c2nc(-c3ccccc3N)[nH]c2n(CCC)c1=O`, the IC50 stood at 41 nM on Adenosine receptor A1 [1] and 0.75 nM against Adenosine receptor A1 [4]. Besides, the solubility in data set [2] was 4 µg/mL (≈ 12.2 µM); in data set [5] (setting [7]), below 1 µg/mL. This compound also returned a pKa in data set [3] of 9.1. In addition, the logP in data set [6] was 3.54.
Consider `CCCn1c(=O)c2[nH]c(-c3ccc(Cl)cc3N)nc2n(CCC)c1=O`, for which the solubility is 0.4 µg/mL (≈ 1.11 µM) in data set [2] and below 0.1 µg/mL in data set [5] (setting [7]). This compound showed a pKa in data set [3] of 8.4. Besides, the logP in data set [6] worked out at 4.02.
`CCn1c(=O)c2[nH]c(-c3ccccc3)nc2n(CC)c1=O`: the solubility in data set [2] amounted to 1 µg/mL (≈ 3.52 µM); in data set [5] (buffer), 6 µg/mL (≈ 21.1 µM). For the same compound, in data set [3], the pKa was determined as 9.1. Moreover, the logP in data set [6] amounted to 2.93.
For the compound `CCn1c(=O)c2nc(-c3ccc(S(=O)(=O)NCCN(C)C)cc3)[nH]c2n(CC)c1=O`, the IC50 at Adenosine receptor A1 [1] is 116 nM; against Adenosine receptor A1 [4] it was 3.3 nM. Moreover, the solubility stood at 11500 µg/mL (≈ 26500 µM) in data set [2] and 110 µg/mL (≈ 253 µM) in data set [5] (setting [7]). In data set [3], this compound showed a pKa of 6.8. In data set [6], the logP is 2.57.
Regarding `CCn1c(=O)c2[nH]c(-c3ccc(S(N)(=O)=O)cc3)nc2n(CC)c1=O`, the IC50 at Adenosine receptor A1 [1] is 47 nM; on Adenosine receptor A1 [4], 0.91 nM.
Consider `CCCn1c(=O)c2[nH]c(-c3ccc(S(=O)(=O)NCCCN(C)C)cc3)nc2n(CCC)c1=O`, for which the figures for the IC50 at Adenosine receptor A1 [1] and at Adenosine receptor A1 [4] were 8.2 nM and 0.08 nM, respectively.
With `CCCn1c(=O)c2nc(-c3ccc(S(=O)(=O)NCCCC(=O)OCC)cc3)[nH]c2n(CCC)c1=O`, the IC50 on Adenosine receptor A1 [1] was 18.5 nM; against Adenosine receptor A1 [4] it was 0.24 nM.
The like results for `CCCn1c(=O)c2nc(-c3ccc(S(=O)(=O)NCCCCN(C)C)cc3)[nH]c2n(CCC)c1=O` were, in that order, 7.5 nM and 0.07 nM.
For `CCCn1c(=O)c2nc(-c3ccc(S(=O)(=O)NCCN(C)C)cc3)[nH]c2n(CCC)c1=O`, the figures for the 50% inhibitory concentration (IC50) at Adenosine receptor A1 [1] and against Adenosine receptor A1 [4] were 6.5 nM and 0.05 nM, respectively. Further, the results for the solubility in data set [2] and in data set [5] (buffer) were 19900 µg/mL (≈ 43000 µM) and 50 µg/mL (≈ 108 µM), respectively. This compound yielded a pKa in data set [3] of 6. This compound also returned a logP in data set [6] of 3.32.
With `CCn1c(=O)c2[nH]c(-c3ccc(S(=O)(=O)N4CCOCC4)cc3)nc2n(CC)c1=O`, the half-maximal inhibitory concentration (IC50) on Adenosine receptor A1 [1] turned out to be 310 nM; at Adenosine receptor A1 [4], 13 nM.
The like results for `CCn1c(=O)c2nc(-c3ccc(S(=O)(=O)N4CCN(C)CC4)cc3)[nH]c2n(CC)c1=O` were, in that order, 190 nM and 6.5 nM.
With `CCn1c(=O)c2nc(-c3ccc(S(=O)(=O)NCC(C)O)cc3)[nH]c2n(CC)c1=O` (centres undefined), the 50% inhibitory concentration (IC50) on Adenosine receptor A1 [1] worked out at 138 nM; against Adenosine receptor A1 [4] it was 4.2 nM.
For the compound `CCn1c(=O)c2[nH]c(-c3ccc(S(=O)(=O)N4CCSCC4)cc3)nc2n(CC)c1=O`, the values for the half-maximal inhibitory concentration (IC50) at Adenosine receptor A1 [1] and at Adenosine receptor A1 [4] were 646 nM and 36.6 nM, respectively.
On to `CCn1c(=O)c2[nH]c(-c3ccc(S(=O)(=O)O)cc3)nc2n(CC)c1=O`, for which the IC50 at Adenosine receptor A1 [1] turned out to be 5540 nM; against Adenosine receptor A1 [4] it was 755 nM. For the same compound, the solubility was above 8000 µg/mL in data set [2] and above 57000 µg/mL in data set [5] (setting [7]). Moreover, in data set [3], the pKa was below 2. In data set [6], this compound yielded a logP of -0.97.
Take `CCCn1c(=O)c2[nH]c(-c3ccc(S(=O)(=O)O)cc3)nc2n(CCC)c1=O`: the half-inhibitory concentration (IC50) at Adenosine receptor A1 [1] was determined as 120 nM; on Adenosine receptor A1 [4], 3.4 nM. In addition, the values for the solubility in data set [2] and in data set [5] (setting [7]) were 1300 µg/mL (≈ 3310 µM) and above 24000 µg/mL, respectively. The compound also had a pKa in data set [3] below 2. Besides, the logP in data set [6] was -0.03.

As a reminder, the IC50 is the midpoint of a concentration-inhibition curve. The solubility is the concentration that dissolves in the medium under given conditions. What is called pKa is the pH at which an ionisable group is half protonated. A lower pKa goes with a stronger acid or weaker base. What is called logP is a log measure of how a compound divides between an organic and an aqueous phase.
